The source of these data is patent publication US5573999A, “β-substituted cinnamic acid derivative” (BASF Aktiengesellschaft, priority 1991, dated 1996).

Assay [1] concerns mitochondrial respiration. As to the kind of experiment: Inhibition of mitochondrial respiration (rate of reduction of cytochrome c in isolated mitochondria), yeast. The following applies: DMSO control. The format is biochemical, Saccharomyces cerevisiae.
The subject of assay [2] is mitochondrial respiration. As to the kind of experiment: Inhibition of mitochondrial respiration (rate of reduction of cytochrome c in isolated mitochondria), phytopathogenic fungus. The class given is biochemical, Drechslera sorokiniana. The following applies: DMSO control. An excerpt: (§1) It is also possible similarly to isolate mitochondria from other organisms, e.g. from the phytopathogenic fungus Drechslera sorokiniana (synonym: Helminthosporium sativum), from the dermatophyte Trichophyton mentagrophytes, which is a human pathogen, and, for example, from the house fly (Musca domestica) as insect or from the spider mite Tetranychus urticae.
(§2) Used as control is a mixture with the equivalent amount of pure DMSO. The inhibition at the concentration of agent in each case is then calculated as follows [formula] where ΔE is the change in extinction, at is the change in time, [formula] is the reaction rate for the control and [formula] is the reaction rate for the sample x.
(§3) The inhibition was determined in each case at a test substance concentration of 1.8/10^-5mol/l .

In assay [3] the test system is mitochondrial respiration. Kind of assay: Inhibition of mitochondrial respiration (rate of reduction of cytochrome c in isolated mitochondria), house fly. The format is biochemical, Musca domestica. The following applies: DMSO control.
Text: as §1, §2, §3

Assay [4] concerns Plasmopara viticola. As to the kind of experiment: Activity against Plasmopara viticola on potted vines. The format is in vivo. The following applies: aqueous dispersion containing 250 ppm active ingredient, infected 8 days after spraying. On the procedure:
Leaves of potted vines of the Muller Thurgau variety were sprayed with an aqueous liquor which contained 80% of active ingredient and 20% of emulsifier in dry matter. To assess the duration of action of the active ingredient, after the sprayed-on layer had dried the plants were placed in a greenhouse for 8 days. The leaves were then infected with a suspension of Plasmopara viticola zoospores. The vines were then placed first in a chamber saturated with water vapor at 24° C. for 48 hours and then in a greenhouse at from 20° to 30° C. for 5 days. After this, to speed up sporangiophore discharge, the plants were again placed in the humidity chamber for 16 hours. The extent of fungus attack was then assessed on the undersides of the leaves.

The test system of assay [5] is wheat mildew (Erysiphe graminis var. tritici). As to the kind of experiment: Activity against wheat mildew on wheat seedlings. The class given is in vivo. The following applies: aqueous dispersion containing 250 ppm active ingredient, assessed after 7 days. The protocol:
Leaves of pot-grown wheat seedlings of the Fruhgold variety were sprayed with an aqueous liquor which contained 80% of active ingredient and 20% of emulsifier in dry matter and, 24 hours after the sprayed-on layer had dried, were dusted with spores of wheat mildew (Erysiphe graminis var. tritici). The test plants were then placed in a greenhouse at from 20° to 22° C. and from 75 to 80% relative humidity. The extent of mildew spread was assessed after 7 days.

Assay [6] relates to Pyricularia oryzae. The class given is in vivo. The following applies: aqueous dispersion containing 250 ppm active ingredient; rice seedlings, protective, assessed after 6 days.

With `O=C(C=C(c1ccccc1)c1ccccc1)N1CCOCC1` [A, morpholide of β-phenylcinnamic acid, reference compound], the “% inhibition of respiration at 1.8 × 10^-5 mol/l test substance, Saccharomyces cerevisiae” value in assay [1] is given as 2%. Moreover, the “% inhibition of respiration at 1.8 × 10^-5 mol/l test substance, Drechslera sorokiniana” value in assay [2] was determined as 0%. Further, the “% inhibition of respiration at 1.8 × 10^-5 mol/l test substance, Musca domestica” value in assay [3] is 5%. Further, the “fungal attack, Plasmopara viticola” value in assay [4] is 35%. Also, the “fungal attack, wheat mildew” value in assay [5] amounted to 45%. Also, the “fungal attack, Pyricularia oryzae” value in assay [6] is recorded as 60%.
With `CO/N=C(\C)c1ccc(OCc2ccccc2/C(=C\C(=O)OC)OC)c(C)c1` [Compound 1a.72, methyl (E)-β-methoxy-2-[2-methyl-4-(1-methoximinoethyl)phenoxymethyl]cinnamate], the “% inhibition of respiration at 1.8 × 10^-5 mol/l test substance, Saccharomyces cerevisiae” value in assay [1] is listed as 98%. For the same molecule, the “% inhibition of respiration at 1.8 × 10^-5 mol/l test substance, Drechslera sorokiniana” value in assay [2] is given as 100%. Also, in assay [3], the “% inhibition of respiration at 1.8 × 10^-5 mol/l test substance, Musca domestica” value is reported as 94%. In assay [4], the “fungal attack, Plasmopara viticola” value is listed as 10%. Also, in assay [5], the “fungal attack, wheat mildew” value is reported as 15%. In addition, in assay [6], the “fungal attack, Pyricularia oryzae” value is 15%.
